In US12410160B2 (Gilead Sciences, Inc., priority 2021, dated 2025):
Read-outs that look alike come from different tables or passages of the source.

Key:
human KHK-C = human KHK-C (Homo sapiens (Human), UniProt P50053); assay: KHK Biochemical Assay (IC50), ADP-Glo, KHK-C; details: average of at least two separate assays
Outline: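 ADP-Glo luminescence measured ADP made over a 4 h room-temperature reaction of ATP plus fructose, started after 30 min compound–enzyme pre-incubation. Buffer: 50 mM Hepes pH 7.4, 140 mM KCl, 5 mM MgCl2, 0.01% Triton-X. Enzyme was His-tagged, BL21 (DE3)-expressed, Ni-NTA-purified; compounds in 1:3 DMSO dilution series.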

HepG2 cells = assay: F1P Cell-Based Assay (EC50), 13C6-fructose-1-phosphate in HepG2 cells (cell culture medium or 50% human plasma)
[1] = Homo sapiens, HepG2, HepG2 cells, 50% human plasma, read-out: F1P 50% HP EC50
[2] = Homo sapiens, HepG2, read-out: F1P 10% FBS EC50, HepG2 cells, cell culture medium (10% FBS)
[3] = Homo sapiens, HepG2, read-out: F1P 10% FBS EC50
[4] = Homo sapiens, HepG2, read-out: F1P 50% HP EC50
[5] = HepG2 cells, 50% human plasma, read-out: F1P 50% HP EC50
[6] = read-out: F1P 10% FBS EC50, HepG2 cells, cell culture medium (10% FBS)

Chain of human KHK-C (P50053 whole entry): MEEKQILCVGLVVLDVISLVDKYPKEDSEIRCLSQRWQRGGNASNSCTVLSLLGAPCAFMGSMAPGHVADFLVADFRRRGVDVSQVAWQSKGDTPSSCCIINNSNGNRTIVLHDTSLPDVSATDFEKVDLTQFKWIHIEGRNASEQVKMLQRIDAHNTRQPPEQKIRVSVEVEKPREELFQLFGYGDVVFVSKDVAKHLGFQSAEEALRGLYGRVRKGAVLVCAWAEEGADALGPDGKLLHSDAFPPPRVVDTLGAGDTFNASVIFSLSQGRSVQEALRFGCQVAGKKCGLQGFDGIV

| Structure (SMILES) | IC50 (human KHK-C) [nM] | EC50 (HepG2 cells; [1]) [nM] | EC50 (HepG2 cells; [2]) [nM] | EC50 (HepG2 cells; [5]) [nM] | EC50 (HepG2 cells; [6]) [nM] | EC50 (HepG2 cells; [3]) [nM] | EC50 (HepG2 cells; [4]) [nM] |
| --- | --- | --- | --- | --- | --- | --- | --- |
| C[C@H]1[C@H](O)CN1c1nc(-c2ccc3c(c2)CCNC3)c2c(n1)C(F)(F)CC2 [Example 657, (2S,3R)-1-[7,7-difluoro-4-(1,2,3,4-tetrahydroisoquinolin-6-yl)-5,6-dihydrocyclopenta[d]pyrimidin-2-yl]-2-methyl-azetidin-3-ol] | 2.7 |  |  |  |  | 4.1 | 4.2 |
| C[C@H]1[C@H](O)CN1c1nc(-c2ccc([C@@H](N)C(F)F)cc2)c2c(n1)C(F)(F)CC2 [Example 659, (2S,3R)-1-[4-[4-[(1R)-1-amino-2,2-difluoro-ethyl]phenyl]-7,7-difluoro-5,6-dihydrocyclopenta[d]pyrimidin-2-yl]-2-methyl-azetidin-3-ol] | 8 | 54 | 42.5 |  |  |  |  |
| C[C@H]1[C@H](O)CN1c1nc(-c2cccc(N=S(C)(=O)C3CC3)c2)c2c(n1)C(F)(F)CC2 (stereo partly drawn) [Example 667, (2S,3R)-1-[4-[3-[(cyclopropyl-methyl-oxo-λ^6-sulfanylidene)amino]phenyl]-7,7-difluoro-5,6-dihydrocyclopenta[d]pyrimidin-2-yl]-2-methyl-azetidin-3-431] | 42.3 |  |  | 305 | 61.3 |  |  |
| C[C@H]1CCN1c1nc(-c2cccc(N=S(C)(=O)C3CC3)c2)c2c(n1)C(F)(F)CC2 (stereo partly drawn) [Example 668, cyclopropyl-[3-[7,7-difluoro-2-[(2S)-2-methylazetidin-1-yl]-5,6-dihydrocyclopenta[d]pyrimidin-4-yl]phenyl]imino-methyl-oxo-λ^6-sulfane] | 32.1 | > 500 | 46.7 |  |  |  |  |
| C[C@H]1CCN1c1nc(-c2cccc(N=S3(=O)CCCC3)c2)c2c(n1)C(F)(F)CC2 [Example 669, 1-[3-[7,7-difluoro-2-[(2S)-2-methylazetidin-1-yl]-5,6-dihydrocyclopenta[d]pyrimidin-4-yl]phenyl]iminothiolane 1-oxide] | 16.2 | 429 | 28.6 |  |  |  |  |
| C[C@H]1[C@H](O)CN1c1nc(-c2ccc3c(c2)OC[C@@H]3n2ccnn2)c2c(n1)C(F)(F)CC2 [Example 670] | 24.3 | 31.4 | 25.3 |  |  |  |  |
| C[C@H]1[C@H](O)CN1c1nc(-c2cccc(N=S3(=O)CCCC3)c2)c2c(n1)C(F)(F)CC2 [Example 671, (2S,3R)-1-[7,7-difluoro-4-[3-[(1-oxothiolan-1-ylidene)amino]phenyl]-5,6-dihydroeyelopenta[d]pyrimidin-2-yl]-2-methyl-azetidin-3-ol] | 32.9 | 269 | 35.1 |  |  |  |  |
| C[C@H]1[C@H](O)CN1c1nc(-c2cccc(N=S3(=O)CCNCC3)c2)c2c(n1)C(F)(F)CC2 [Example 672, (2S,3R)-1-[7,7-difluoro-4-[3-[(1-oxo-1,4-thiazinan-1-ylidene)amino]phenyl]-5,6-dihydroeyelopenta[d]pyrimidin-2-yl]-2-methyl-azetidin-3-ol] | 33.2 | 105 | 56.2 |  |  |  |  |
| CS(=N)(=O)c1cccc(-c2nc(N3CC[C@@H]3C#N)nc3c2CCC3(F)F)c1 (stereo partly drawn) [Example 709, (2R)-1-(7,7-difluoro-4-(3-(S-methylsulfonimidoyl)phenyl)-6,7-dihydro-5H-cyclopenta[d]pyrimidin-2-yl)azetidine-2-carbonitrile] | 41.7 | 101 | 75.2 |  |  |  |  |
| C[C@H]1[C@H](F)CN1c1nc(-c2cccc(S(C)(=N)=O)c2)c2c(n1)C(F)(F)CC2 (stereo partly drawn) [Example 710, (3-(7,7-difluoro-2-((2S,3R)-3-fluoro-2-methylazetidin-1-yl)-6,7-dihydro-5H-cyclopenta[d]pyrimidin-4-yl)phenyl)(imino)(methyl)-λ^6-sulfanone] | 7.2 | 42.6 | 12.9 |  |  |  |  |
| C[C@H]1[C@H](O)CN1c1nc(-c2ccc(F)c(S(C)(=N)=O)c2)c2c(n1)C(F)(F)CC2 (stereo partly drawn) [Example 723, (5-(7,7-difluoro-2-((2S,3R)-3-hydroxy-2-methylazetidin-1-yl)-6,7-dihydro-5H-cyclopenta[d]pyrimidin-4-yl)-2-fluorophenyl)(imino)(methyl)-λ^6-sulfanone] | 19 | 41.3 | 44.3 |  |  |  |  |
| C[C@H]1[C@H](O)CN1c1nc(-c2cc(F)cc(S(C)(=N)=O)c2)c2c(n1)C(F)(F)CC2 (some centres unmarked) [Example 724] | 25.4 |  |  |  |  | 166 | 234 |
| C[C@H]1CCN1c1nc2c(c(-c3ccc4c(c3)S(=N)(=O)CCO4)n1)CCC2 (some centres unmarked) [Example 726] | 16.7 | 306 | 62.1 |  |  |  |  |
| CCOc1ccc(-c2nc(N3C[C@@H](O)[C@@H]3C)nc3c2CCC3(F)F)cc1S(N)(=O)=O [Example 764, 5-[7,7-difluoro-2-[(2S,3R)-3-hydroxy-2-methyl-azetidin-1-yl]-5,6-dihydrocyclopenta[d]pyrimidin-4-yl]-2-ethoxy-benzenesulfonamide] | 5.5 | 22.1 | 8.9 |  |  |  |  |
| C[C@H]1CCN1c1nc(-c2ccc3c(c2)CNC3)c2c(n1)C(F)(F)CC2 [Example 765, 7,7-difluoro-4-isoindolin-5-yl-2-[(2S)-2-methylazetidin-1-yl]-5,6-dihydrocyclopenta[d]pyrimidine] | 7.7 | 53.2 | 15.5 |  |  |  |  |
| CC(=O)NCc1cc(-c2nc(N3C[C@@H](O)[C@@H]3C)nc3c2CCC3(F)F)cc2c1OCC2 [Example 766, N-[[5-[7,7-difluoro-2-[(2S,3R)-3-hydroxy-2-methyl-azetidin-1-yl]-5,6-dihydrocyclopenta[d]pyrimidin-4-yl]-2,3-dihydrobenzofuran-7-yl]methyl]acetamide] | 11.8 |  |  | 150 | 38.4 |  |  |
| CNC1(c2ccc(-c3nc(N4C[C@@H](F)[C@@H]4C)nc4c3CCC4(F)F)cc2)CS(=O)(=O)C1 [Example 770, 3-(4-(7,7-difluoro-2-((2S,3R)-3-fluoro-2-methylazetidin-1-yl)-6,7-dihydro-5H-cyclopenta[d]pyrimidin-4-yl)phenyl)-3-(methylamino)thietane 1,1-dioxide] | 5.7 | 156 | 44.3 |  |  |  |  |

Continued, in another order:

| IC50 (human KHK-C) [nM] | EC50 (HepG2 cells; [1]) [nM] | EC50 (HepG2 cells; [2]) [nM] | EC50 (HepG2 cells; [5]) [nM] | EC50 (HepG2 cells; [6]) [nM] | Structure (SMILES) | EC50 (HepG2 cells; [3]) [nM] | EC50 (HepG2 cells; [4]) [nM] |
| --- | --- | --- | --- | --- | --- | --- | --- |
| 4.1 | > 500 | 107 |  |  | CC1(C)CC(NS(C)(=O)=O)c2ccc(-c3nc(N4CC[C@@H]4CF)nc4c3CCC4(F)F)cc21 (stereo partly drawn) [Example 629, N-(5-(7,7-difluoro-2-((R)-2-(fluoromethyl)azetidin-1-yl)-6,7-dihydro-5H-cyclopenta[d]pyrimidin-4-yl)-3,3-dimethyl-2,3-dihydro-1H-inden-1-yl)methanesulfonamide] |  |  |
| 2.4 | > 500 | 68.8 |  |  | C[C@H]1[C@H](O)CN1c1nc(-c2ccc3c(c2)C(C)(C)CC3NS(C)(=O)=O)c2c(n1)C(F)(F)CC2 (stereo partly drawn) [Example 630, N-(5-(7,7-difluoro-2-((2S,3R)-3-hydroxy-2-methylazetidin-1-yl)-6,7-dihydro-5H-cyclopenta[d]pyrimidin-4-yl)-3,3-dimethyl-2,3-dihydro-1H-inden-1-yl)methanesulfonamide] |  |  |
| 1.7 | 11.8 | 4.5 |  |  | C[C@H]1CCN1c1nc(-c2ccc3c(c2)S(=O)(=O)CC3N)c2c(n1)C(F)(F)CC2 (stereo partly drawn) [Example 656, 6-[7,7-difluoro-2-[(2S)-2-methylazetidin-1-yl]-5,6-dihydrocyclopenta[d]pyrimidin-4-yl]-1,1-dioxo-2,3-dihydrobenzothiophen-3-amine] |  |  |
| 0.2 | 232 | 3 |  |  | C[C@H]1[C@H](F)CN1c1nc(-c2ccc3c(c2)S(=O)(=O)CC3NS(C)(=O)=O)c2c(n1)C(F)(F)CC2 (stereo partly drawn) [Example 674, N-[6-[7,7-difluoro-2-[(2S,3R)-3-fluoro-2-methyl-azetidin-1-yl]-5,6-dihydrocyclopenta[d]pyrimidin-4-yl]-1,1-dioxo-2,3-dihydrobenzothiophen-3-yl]methanesulfonamide] |  |  |
| 2 | 159 | 11.4 |  |  | C[C@H]1CCN1c1nc(-c2cc3c(c(CNS(C)(=O)=O)c2)OCC3)c2c(n1)C(F)(F)CC2 [Example 762, N-[[5-[7,7-difluoro-2-[(2S)-2-methylazetidin-1-yl]-5,6-dihydrocyclopenta[d]pyrimidin-4-yl]-2,3-dihydrobenzofuran-7-yl]methyl]methanesulfonamide] |  |  |
| 4.8 | 97.9 | 20.9 |  |  | CC(=O)NC1COc2cc(-c3nc(N4CC[C@@H]4C)nc4c3CCC4(F)F)ccc21 (stereo partly drawn) [Example 767, N-[6-[7,7-difluoro-2-[(2S)-2-methylazetidin-1-yl]-5,6-dihydrocyclopenta[d]pyrimidin-4-yl]-2,3-dihydrobenzofuran-3-yl]acetamide] |  |  |
| 1 | 33.8 | 10.5 |  |  | C[C@H]1[C@H](F)CN1c1nc(-c2ccc(C3(N)CS(=O)(=O)C3)cc2)c2c(n1)C(F)(F)CC2 [Example 772] |  |  |
| 2.1 |  | 11.8 |  |  | C[C@H]1CCN1c1nc(-c2ccc(C(N)CS(C)(=O)=O)cc2)c2c(n1)C(F)(F)CC2 (stereo partly drawn) [Example 774, 1-(4-(7,7-difluoro-2-((S)-2-methylazetidin-1-yl)-6,7-dihydro-5H-cyclopenta[d]pyrimidin-4-yl)phenyl)-2-(methylsulfonyl)ethan-1-amine] |  |  |
| 4.8 | 35 | 22.8 |  |  | CS(=O)(=O)CC(N)c1ccc(-c2nc(N3CC[C@@H]3CF)nc3c2CCC3(F)F)cc1 (stereo partly drawn) [Example 780, 1-(4-(7,7-difluoro-2-((R)-2-(fluoromethyl)azetidin-1-yl)-6,7-dihydro-5H-cyclopenta[d]pyrimidin-4-yl)phenyl)-2-(methylsulfonyl)ethan-1-amine] |  |  |
